Calls of active or inactive are those of the source. No cut-off for these calls is given here.
Experiments:
PC-3 = experiment: Antiproliferative activity against human PC-3 cells after 72 hrs by MTT assay; type: functional, cell-based; settings: PC-3, 72 h
HeLa = experiment: Antiproliferative activity against human HeLa cells after 72 hrs by MTT assay; type: functional, cell-based
WI-38 = experiment: Antiproliferative activity against human WI-38 cells after 72 hrs by MTT assay; type: functional, cell-based; settings: WI-38, 72 h
[1] = target: Epidermal growth factor receptor (Homo sapiens, UniProt P00533)
Sequence of Epidermal growth factor receptor (P00533 whole entry): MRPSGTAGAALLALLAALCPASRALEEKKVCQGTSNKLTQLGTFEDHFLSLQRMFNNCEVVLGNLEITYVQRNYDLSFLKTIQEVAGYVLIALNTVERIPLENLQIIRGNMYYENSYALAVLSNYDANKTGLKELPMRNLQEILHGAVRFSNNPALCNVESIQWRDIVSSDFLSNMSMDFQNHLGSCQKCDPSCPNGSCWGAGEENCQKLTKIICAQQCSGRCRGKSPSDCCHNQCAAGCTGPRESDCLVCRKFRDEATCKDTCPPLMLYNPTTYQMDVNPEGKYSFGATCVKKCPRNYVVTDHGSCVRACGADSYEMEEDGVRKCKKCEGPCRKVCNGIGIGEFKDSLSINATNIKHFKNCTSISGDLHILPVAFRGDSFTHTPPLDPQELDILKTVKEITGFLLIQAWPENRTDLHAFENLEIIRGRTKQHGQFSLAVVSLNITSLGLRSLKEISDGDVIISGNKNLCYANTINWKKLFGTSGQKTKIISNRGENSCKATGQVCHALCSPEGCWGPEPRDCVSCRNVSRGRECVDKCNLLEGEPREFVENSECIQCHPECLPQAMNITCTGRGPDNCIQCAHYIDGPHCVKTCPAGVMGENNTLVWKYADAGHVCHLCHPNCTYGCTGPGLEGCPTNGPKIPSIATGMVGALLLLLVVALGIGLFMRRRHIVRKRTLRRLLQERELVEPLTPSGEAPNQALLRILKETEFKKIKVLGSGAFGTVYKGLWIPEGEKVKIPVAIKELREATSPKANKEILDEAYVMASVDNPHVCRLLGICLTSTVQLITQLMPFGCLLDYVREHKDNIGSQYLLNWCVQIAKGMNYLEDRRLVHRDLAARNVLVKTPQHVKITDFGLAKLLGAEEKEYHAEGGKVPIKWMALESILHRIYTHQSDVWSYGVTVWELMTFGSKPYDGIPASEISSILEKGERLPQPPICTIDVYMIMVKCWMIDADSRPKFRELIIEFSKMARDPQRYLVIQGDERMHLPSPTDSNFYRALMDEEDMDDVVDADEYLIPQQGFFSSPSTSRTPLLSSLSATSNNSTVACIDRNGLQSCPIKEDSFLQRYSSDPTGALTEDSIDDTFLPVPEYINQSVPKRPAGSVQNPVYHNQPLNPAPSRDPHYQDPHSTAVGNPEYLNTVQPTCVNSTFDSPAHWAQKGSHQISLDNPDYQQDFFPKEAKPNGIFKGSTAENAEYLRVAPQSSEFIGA
Description: Inhibition of recombinant human EGFR incubated for 40 to 45 mins and measured after 15 mins by Kinase-Glo Max assay

[2] = target: Receptor tyrosine-protein kinase erbB-2 (Homo sapiens, UniProt P04626); experiment: Inhibition of recombinant human HER2 incubated for 40 to 45 mins and measured after 15 mins by Kinase-Glo Max assay
Sequence of Receptor tyrosine-protein kinase erbB-2 (P04626 whole entry): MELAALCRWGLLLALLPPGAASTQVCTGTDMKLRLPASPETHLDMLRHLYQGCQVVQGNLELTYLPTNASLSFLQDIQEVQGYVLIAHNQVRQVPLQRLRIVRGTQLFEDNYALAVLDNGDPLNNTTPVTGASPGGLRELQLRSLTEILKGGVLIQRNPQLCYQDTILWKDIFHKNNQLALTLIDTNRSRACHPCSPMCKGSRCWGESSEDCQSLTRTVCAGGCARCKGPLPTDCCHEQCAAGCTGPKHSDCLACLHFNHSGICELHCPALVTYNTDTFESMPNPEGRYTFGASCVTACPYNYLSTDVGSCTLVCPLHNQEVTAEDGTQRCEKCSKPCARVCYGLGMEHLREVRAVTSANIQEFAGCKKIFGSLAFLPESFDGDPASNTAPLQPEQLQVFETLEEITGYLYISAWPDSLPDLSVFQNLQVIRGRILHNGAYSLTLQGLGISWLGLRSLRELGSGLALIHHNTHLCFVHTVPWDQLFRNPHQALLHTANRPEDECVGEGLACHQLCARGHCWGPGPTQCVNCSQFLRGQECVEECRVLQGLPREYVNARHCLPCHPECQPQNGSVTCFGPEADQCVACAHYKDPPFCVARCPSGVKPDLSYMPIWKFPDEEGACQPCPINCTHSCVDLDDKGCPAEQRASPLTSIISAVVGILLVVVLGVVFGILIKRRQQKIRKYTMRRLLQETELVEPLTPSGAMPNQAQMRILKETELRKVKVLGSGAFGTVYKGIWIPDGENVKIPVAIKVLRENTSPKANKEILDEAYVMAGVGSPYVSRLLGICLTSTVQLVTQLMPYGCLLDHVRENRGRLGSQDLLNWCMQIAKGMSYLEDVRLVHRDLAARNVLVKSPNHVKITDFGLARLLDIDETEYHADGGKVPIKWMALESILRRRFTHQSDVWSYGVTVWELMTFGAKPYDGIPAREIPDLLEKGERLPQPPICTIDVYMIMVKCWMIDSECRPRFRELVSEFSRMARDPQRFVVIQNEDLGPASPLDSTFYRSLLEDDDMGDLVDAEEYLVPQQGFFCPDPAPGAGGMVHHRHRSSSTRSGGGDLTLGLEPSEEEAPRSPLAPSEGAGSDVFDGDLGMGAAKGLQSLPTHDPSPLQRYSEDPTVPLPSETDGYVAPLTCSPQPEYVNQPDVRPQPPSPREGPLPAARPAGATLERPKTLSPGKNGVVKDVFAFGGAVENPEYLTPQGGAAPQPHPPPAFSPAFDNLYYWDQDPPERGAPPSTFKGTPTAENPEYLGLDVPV

Dihydrofolate reductase = target: T1, Dihydrofolate reductase (Homo sapiens, UniProt P00374); experiment: Inhibition of recombinant human DHFR expressed in Escherichia coli incubated for 15 mins and measured by ELISA
T1 sequence (P00374 whole entry): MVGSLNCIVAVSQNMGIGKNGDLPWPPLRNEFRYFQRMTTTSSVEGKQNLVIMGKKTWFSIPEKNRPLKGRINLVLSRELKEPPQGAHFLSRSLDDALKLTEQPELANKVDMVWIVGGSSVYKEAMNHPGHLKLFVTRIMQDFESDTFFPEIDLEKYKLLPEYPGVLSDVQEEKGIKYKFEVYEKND

HepG2 = experiment: cells; settings: Homo sapiens, HepG2, 72 h
MCF7 [3] = experiment: cells; settings: Homo sapiens, MCF7, 72 h
HCT-116 = experiment: cells; settings: Homo sapiens, HCT-116, 72 h
Description: Antiproliferative activity against human HCT-116 cells after 72 hrs by MTT assay

MCF7 [4] = experiment: Induction of cell cycle arrest in human MCF7 cells assessed as increase in DNA content at G0/G1 phase measured by propidium iodide/RNAse staining based flow cytometry analysis (reference value: 57.82%); type: functional
MCF7 [5] = experiment: Induction of cell cycle arrest in human MCF7 cells assessed as increase in DNA content at S phase measured by propidium iodide/RNAse staining based flow cytometry analysis (reference value: […]%); type: functional
MCF7 [6] = experiment: Induction of cell cycle arrest in human MCF7 cells assessed as decrease in DNA content at G2/M phase measured by propidium iodide/RNAse staining based flow cytometry analysis (reference value: 13.4%); type: functional; design: scale not given: the % may be the effect or the level left
MCF7 [7] = experiment: Induction of apoptosis in human MCF7 cells assessed as total apoptotic cells level measured by propidium iodide/RNAse staining based flow cytometry analysis (reference value: 0.73%); type: functional
MCF7 [8] = experiment: Induction of apoptosis in human MCF7 cells assessed as early apoptotic cells level measured by propidium iodide/RNAse staining based flow cytometry analysis (reference value: […]); type: functional
MCF7 [9] = experiment: Induction of apoptosis in human MCF7 cells assessed as late apoptotic cells level measured by propidium iodide/RNAse staining based flow cytometry analysis (reference value: 0.22%); type: functional
MCF7 [10] = experiment: Induction of necrosis in human MCF7 cells assessed as necrotic cells level measured by propidium iodide/RNAse staining based flow cytometry analysis (reference value: 0.9%); type: functional
[11] = Antitumor activity in 7,12-dimethylbenz [a]anthracene-induced non-lactating mammary glands solid tumor model of female Swiss albino mouse assessed as mean tumor volume at 10 mg/kg, ip; type: functional
[12] = Antitumor activity in 7,12-dimethylbenz [a]anthracene-induced non-lactating mammary glands solid tumor model of female Swiss albino mouse assessed as reduction in tumor volume at 10 mg/kg, ip; type: functional; design: scale not given: the % may be the effect or the level left
[13] = Toxicity in 7,12-dimethylbenz [a]anthracene-induced non-lactating mammary glands solid tumor model of female Swiss albino mouse assessed as mean body weight at 10 mg/kg, ip; type: organism-based; settings: in vivo
[14] = Toxicity in 7,12-dimethylbenz [a]anthracene-induced non-lactating mammary glands solid tumor model of female Swiss albino mouse assessed as reduction in body weight at 10 mg/kg, ip; type: organism-based; design: scale not given: the % may be the effect or the level left; settings: in vivo
Breast cancer cell line = experiment: Antitumor activity in 7,12-dimethylbenz [a]anthracene-induced non-lactating mammary glands solid tumor model of female Swiss albino mouse assessed as absence of ductal carcinoma in mammary gland at 10 mg/kg, ip measured by H and E staining method; type: functional, organism-based
Breast carcinoma cell = experiment: Induction of apoptosis in human breast cancer cells assessed as normalization of caspase-3 expression measured as caspase-3 score; type: functional, Breast cancer cell line
[15] = Antitumor activity in 7,12-dimethylbenz [a]anthracene-induced non-lactating mammary glands solid tumor model of female Swiss albino mouse assessed as mean tumor volume at 2 mg/kg, ip; type: functional
[16] = Antitumor activity in 7,12-dimethylbenz [a]anthracene-induced non-lactating mammary glands solid tumor model of female Swiss albino mouse assessed as reduction in tumor volume at 2 mg/kg, ip; type: functional; design: scale not given: the % may be the effect or the level left
[17] = Toxicity in 7,12-dimethylbenz [a]anthracene-induced non-lactating mammary glands solid tumor model of female Swiss albino mouse assessed as mean body weight at 2 mg/kg, ip; type: organism-based; settings: in vivo
[18] = Toxicity in 7,12-dimethylbenz [a]anthracene-induced non-lactating mammary glands solid tumor model of female Swiss albino mouse assessed as reduction in body weight at 2 mg/kg, ip; type: organism-based; design: scale not given: the % may be the effect or the level left; settings: in vivo

Row | Compound | IC50 (PC-3) [µM] | IC50 (HeLa) [µM] | IC50 (WI-38) [µM] | IC50 [1] [µM] | IC50 [2] [µM] | IC50 (Dihydrofolate reductase) [µM] | IC50 (HepG2) [µM] | IC50 (MCF7 [3]) [µM] | IC50 (HCT-116) [µM] | Activity (Breast carcinoma cell) | further results
1 | Cc1ccc(-c2c(CN3CCCCC3)nc3scc(C(=O)O)n23)cc1 | 16.6 | 7.63 | > 100 | 0.18 | 0.146 | 0.907 | 10.8 | 8.29 | 13.8 |  | 
2 | COc1ccc(-c2c(CN3CCOCC3)nc3scc(C(=O)NN)n23)cc1 | 18.4 | 9.43 | 36.8 | 0.122 | 0.078 | 0.585 | 12.2 | 2.37 | 16.2 | 1.17 | Activity (MCF7 [4]): 64.25%; Activity (MCF7 [5]): 25.49%; Activity (MCF7 [6]): 10.26%; Activity (MCF7 [7]): 35.46%; Activity (MCF7 [8]): 13.27%; Activity (MCF7 [9]): 22.19%; Activity (MCF7 [10]): 3.25%; Activity [11]: 1.098 mm3; Activity [12]: 65.3%; Activity [13]: 35.2 g; Activity [14]: 7.4%; Activity (Breast cancer cell line): Active
3 | COc1cccc2c1C(=O)c1c(O)c3c(c(O)c1C2=O)C[C@@](O)(C(=O)CO)C[C@@H]3O[C@H]1C[C@H](N)[C@H](O)[C@H](C)O1 [DOXORUBICIN] | 8.54 | 8.87 |  |  |  |  |  |  |  | 1.5 | Activity [15]: 0.62 mm3; Activity [16]: 80.4%; Activity [17]: 29 g; Activity [18]: 23.7%
4 | Cc1ccc(-c2c(CN3CCOCC3)nc3scc(C(=O)NN)n23)cc1 | 11.2 | 6.9 | 89.6 | 0.246 | 0.357 | 0.123 | 9.67 | 8.46 | 13.2 |  | 
5 | CC(=O)NNC(=O)c1csc2ncc(-c3ccc(Br)cc3)n12 | 12.7 | 4.78 | 54.2 | 0.153 | 0.108 | 0.291 | 3.48 | 1.83 | 6.08 | 1.33 | Activity (MCF7 [4]): 62.61%; Activity (MCF7 [5]): 32.15%; Activity (MCF7 [6]): 5.24%; Activity (MCF7 [7]): 37.67%; Activity (MCF7 [8]): 9.63%; Activity (MCF7 [9]): 28.04%; Activity (MCF7 [10]): 6.72%; Activity [11]: 0.742 mm3; Activity [12]: 76.5%; Activity [13]: 31.4 g; Activity [14]: 17.4%; Activity (Breast cancer cell line): Active
6 | CCC(=O)NNC(=O)c1csc2ncc(-c3ccc(C)cc3)n12 | 18.5 | 13 | 67.2 | 0.45 | 0.244 | 5.67 | 7.34 | 5.19 | 9.23 |  | 
7 | NNC(=O)c1csc2nc(CN3CCOCC3)c(-c3ccc(Br)cc3)n12 | 21.9 | 3.65 | 49.8 | 0.419 | 0.121 | 3.28 | 5.81 | 6.18 | 17.9 |  | 
